Active and inactive are the calls of the source. The calls are words filed in the database; no cut-off is given here.
Assays:
[1] = test system: MOLT-4; assay: Radioprotective activity against gamma-irradiated human MOLT4 cells preincubated for 1 hr at 100 to 400 uM before gamma-irradiation measured after 18 hrs by erythrosine B dye-exclusion test; format: functional, cell-based
[2] = test system: MOLT-4; assay: Cytotoxicity against human MOLT4 cells at 100 to 400 uM after 18 hrs by erythrosine B dye-exclusion test; format: cell-based; conditions: molt-4, 18 h
[3] = test system: MOLT-4; assay: Inhibition of apoptosis in gamma-irradiated human MOLT4 cells preincubated for 1 hr at 100 to 400 uM before gamma-irradiation measured after 18 hrs by erythrosine B dye-exclusion test; format: functional, cell-based
[4] = test system: MOLT-4; assay: Radioprotective activity against gamma-irradiated human MOLT4 cells preincubated for 1 hr at <50 uM before gamma-irradiation measured after 18 hrs by erythrosine B dye-exclusion test; format: functional, cell-based
[5] = test system: MOLT-4; assay: Radioprotective activity against gamma-irradiated human MOLT4 cells preincubated for 1 hr before gamma-irradiation measured after 18 hrs by erythrosine B dye-exclusion test; format: functional, cell-based
[6] = test system: MOLT-4; assay: Inhibition of apoptosis in gamma-irradiated human MOLT4 cells compound treated at 100 to 400 uM for 3 hrs post gamma-irradiation after 18 hrs by erythrosine B dye-exclusion test; format: functional, cell-based
[7] = test system: Jurkat; assay: Radioprotective activity against gamma-irradiated p53-inactive human Jurkat cells at after 18 hrs by erythrosine B dye-exclusion test; format: functional, cell-based
[8] = test system: Jurkat; assay: Cytotoxicity against p53-inactive human Jurkat cells at after 18 hrs by erythrosine B dye-exclusion test; format: cell-based
[9] = Antioxidant activity assessed as DPPH free radical scavenging activity by UV-vis spectrophotometry; format: physicochemical
[10] = molecular target: Cellular tumor antigen p53 (Homo sapiens) (UniProt P04637); assay: Inhibition of recombinant FLAG-p53 (unknown origin) binding to FITC-labeled double-stranded oligonucleotide measured after 3 hrs by EMSA in presence of zinc(II) chelators
Chain of Cellular tumor antigen p53 (Homo sapiens) (P04637 whole entry, looked up): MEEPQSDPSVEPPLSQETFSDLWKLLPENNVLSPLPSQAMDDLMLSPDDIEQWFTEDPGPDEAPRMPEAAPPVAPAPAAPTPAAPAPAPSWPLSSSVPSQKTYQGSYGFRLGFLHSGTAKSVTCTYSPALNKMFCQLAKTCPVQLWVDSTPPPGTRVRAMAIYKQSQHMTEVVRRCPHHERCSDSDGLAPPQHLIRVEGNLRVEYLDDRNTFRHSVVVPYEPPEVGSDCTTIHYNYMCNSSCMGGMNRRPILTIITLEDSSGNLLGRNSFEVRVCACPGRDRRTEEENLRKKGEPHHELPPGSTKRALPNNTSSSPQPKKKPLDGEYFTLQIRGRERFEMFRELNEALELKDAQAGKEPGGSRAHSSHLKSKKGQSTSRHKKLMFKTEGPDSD

[11] = molecular target: Cellular tumor antigen p53 (Homo sapiens) (UniProt P04637); assay: Binding affinity to recombinant FLAG-p53 (unknown origin) assessed as confirmational change measured after 12 hrs by CD spectroscopy in presence of zinc(II) chelators
[12] = test system: MOLT-4; assay: Cytotoxicity against human MOLT4 cells at 200 to 300 uM after 18 hrs by erythrosine B dye-exclusion test; format: cell-based; conditions: molt-4, 18 h
[13] = Stability of the compound assessed as hydrolysis at 37 degC after 18 hrs; format: physicochemical

For `CN(C)S(=O)(=O)c1cc(Br)c(O)c2ncccc12`, which Activity [1] is on record?
Its Activity is “Active”.

With `COc1ccc(S(=O)(=O)N(C)C)c2ccc(C)nc12` as the compound, how does the Activity [2] read?
The Activity was “Non-toxic”.

And the “apoptosis inhibition (active/inactive)” value [3]?
The value was “Active”.

With `CNS(=O)(=O)c1cc(S(=O)(=O)NC)c2ccc(C)nc2c1OC` as the compound, how does the “apoptosis inhibition (active/inactive)” value [3] read?
The value was “Active”.

With `COc1c(I)cc(S(=O)(=O)N(C)C)c2ccc(C)nc12` as the compound, how does the Activity [2] read?
Its Activity is “Toxic”.

And the “apoptosis inhibition (active/inactive)” value [3]?
The value was “Active”.

With `Cc1ccc2c(S(=O)(=O)N3CCNCC3)cc(S(=O)(=O)N3CCNCC3)c(O)c2n1` as the compound, how does the Activity [1] read?
Its Activity is “Active”.

Which “apoptosis inhibition (active/inactive)” value [3] does the source give for `CCOc1ccc(S(=O)(=O)N(C)C)c2ccc(C)nc12` here?
Its value is “Active”.

For `Oc1cccc2ccccc12`, which Activity [1] is on record?
Its Activity is “inactive”.

Which Activity [4] does the source give for `Oc1ccc(Cl)c2cccnc12` [CLOXYQUIN] here?
The Activity was “Active”.

And the Activity [2]?
The Activity was “Toxic”.

Which Activity [4] does the source give for `COc1cc(/C=C/C(=O)CC(=O)/C=C/c2ccc(O)c(OC)c2)ccc1O` here?
The Activity was “Active”.

What does the source list for `CNS(=O)(=O)c1ccc(OC)c2nc(C)ccc12`?
Activity [2]: Non-toxic; apoptosis inhibition (active/inactive) [3]: Active

For `CNS(=O)(=O)c1cc(S(=O)(=O)NC)c2ccc(C)nc2c1O`, which Activity [1] is on record?
The Activity was “Active”.

And the Activity [2]?
Its Activity is “Non-toxic”.

What about the Activity [5] of the same compound?
Its Activity is “Dose-dependent effect”.

What about the inhibition [6] of the same compound?
Its inhibition is “Active”.

And the Activity [7]?
Its Activity is “inactive”.

And the Activity [8]?
Its Activity is “Non-toxic”.

And the Activity [9]?
The Activity was “Not Active”.

What about the inhibition [10] of the same compound?
The inhibition was “inactive”.

What about the Activity [11] of the same compound?
The Activity was “inactive”.

Which Activity [2] does the source give for `Cc1ccc2c(S(=O)(=O)N(C)C)cc(S(=O)(=O)N(C)C)c(O)c2n1` here?
Its Activity is “Toxic”.

For `COc1c(Br)cc(S(=O)(=O)N(C)C)c2ccc(C)nc12`, which Activity [2] is on record?
Its Activity is “Toxic”.

What about the “apoptosis inhibition (active/inactive)” value [3] of the same compound?
The value was “Active”.

With `CNS(=O)(=O)c1cc(S(=O)(=O)NC)c2ccc(C)nc2c1OS(C)(=O)=O` as the compound, how does the Activity [12] read?
Its Activity is “Toxic”.

And the Stability [13]?
Its Stability is “Unstable”.

For `Cc1ccc2c(S(=O)(=O)N(C)C)cc(Br)c(O)c2n1`, which Activity [1] is on record?
Its Activity is “Active”.

And the Activity [2]?
Its Activity is “Non-toxic”.

For `CCN(CC)S(=O)(=O)c1cc(S(=O)(=O)N(CC)CC)c2ccc(C)nc2c1OC`, which Activity [2] is on record?
The Activity was “Toxic”.

What about the “apoptosis inhibition (active/inactive)” value [3] of the same compound?
The value was “Active”.

For `CCN(CC)S(=O)(=O)c1cc(S(=O)(=O)N(CC)CC)c2ccc(C)nc2c1O`, which Activity [2] is on record?
Its Activity is “Toxic”.

For `c1ccc(CN(CCN(Cc2ccccn2)Cc2ccccn2)Cc2ccccn2)nc1`, which Activity [4] is on record?
The Activity was “Active”.

Which Activity [1] does the source give for `CN(C)S(=O)(=O)c1ccc(O)c2ncccc12` here?
Its Activity is “Active”.

For `c1ccc(CNCCNCc2ccccn2)nc1`, which Activity [4] is on record?
Its Activity is “Active”.

What about the Activity [11] of the same compound?
The Activity was “Active”.

With `CN(C)S(=O)(=O)c1ccc2c(S(=O)(=O)N(C)C)cc(S(=O)(=O)N(C)C)c(O)c2c1` as the compound, how does the Activity [1] read?
The Activity was “inactive”.

For `Cc1ccc2c(S(=O)(=O)N3CCCNCC3)cc(S(=O)(=O)N3CCCNCC3)c(O)c2n1`, which Activity [1] is on record?
Its Activity is “Active”.

Which Activity [1] does the source give for `c1ccc2ncccc2c1` here?
The Activity was “inactive”.

For `COc1c(S(=O)(=O)N(C)C)cc(S(=O)(=O)N(C)C)c2ccc(C)nc12`, which Activity [2] is on record?
Its Activity is “Non-toxic”.

What about the inhibition [6] of the same compound?
The inhibition was “Active”.

What about the Activity [7] of the same compound?
Its Activity is “inactive”.

What about the Activity [8] of the same compound?
Its Activity is “Non-toxic”.

What about the Activity [9] of the same compound?
The Activity was “Not Active”.

And the inhibition [10]?
The inhibition was “inactive”.

And the Activity [11]?
The Activity was “inactive”.

And the “apoptosis inhibition (active/inactive)” value [3]?
Its value is “Active”.

For `CNS(=O)(=O)c1cc(S(=O)(=O)NC)c2cccnc2c1O`, which Activity [4] is on record?
The Activity was “inactive”.

And the Activity [1]?
The Activity was “Active”.

And the Activity [5]?
Its Activity is “Dose-dependent effect”.

Which Activity [1] does the source give for `Cc1ccc2c(S(=O)(=O)NCCN)cc(S(=O)(=O)NCCN)c(O)c2n1` here?
The Activity was “inactive”.

Which Activity [2] does the source give for `CCCNS(=O)(=O)c1cc(S(=O)(=O)NCCC)c2ccc(C)nc2c1O` here?
The Activity was “Toxic”.

Which Activity [4] does the source give for `O=C1O[C@H]([C@@H](O)CO)C(O)=C1O` here?
The Activity was “Active”.

Which Activity [1] does the source give for `Oc1ccc(Cl)c2ccccc12` here?
Its Activity is “inactive”.

With `Cc1ccc2c(S(N)(=O)=O)cc(S(N)(=O)=O)c(O)c2n1` as the compound, how does the Activity [1] read?
Its Activity is “inactive”.

For `CCOc1c(S(=O)(=O)N(C)C)cc(S(=O)(=O)N(C)C)c2ccc(C)nc12`, which “apoptosis inhibition (active/inactive)” value [3] is on record?
The value was “Active”.

Which Activity [4] does the source give for `Oc1cccc2cccnc12` [OXYQUINOLINE] here?
The Activity was “Active”.

What about the Activity [2] of the same compound?
Its Activity is “Toxic”.

Which results are given for `Cc1ccc2c(S(=O)(=O)N(C)C)ccc(O)c2n1`?
Activity [1]: Active; Activity [2]: Non-toxic

Which Activity [1] does the source give for `Cc1ccc2cccc(O)c2n1` here?
The Activity was “Active”.

Which Activity [1] does the source give for `c1ccc2cnccc2c1` here?
The Activity was “inactive”.

With VITAMIN E as the compound, how does the Activity [4] read?
The Activity was “Active”.

With `CCOc1c(Br)cc(S(=O)(=O)N(C)C)c2ccc(C)nc12` as the compound, how does the Activity [2] read?
Its Activity is “Toxic”.

Which Activity [2] does the source give for `CCOc1c(S(=O)(=O)N(CC)CC)cc(S(=O)(=O)N(CC)CC)c2ccc(C)nc12` here?
Its Activity is “Toxic”.

With `CCOc1c(I)cc(S(=O)(=O)N(C)C)c2ccc(C)nc12` as the compound, how does the Activity [2] read?
The Activity was “Toxic”.

Reference: ChEMBL document CHEMBL3351457, “Design and synthesis of 8-hydroxyquinoline-based radioprotective agents” (Bioorg Med Chem, 2014)
